{"source": "patent US9573911B2", "about": "“Diphosphate mimetics and uses thereof” (President and Fellows of Harvard College, priority 2011, dated 2017)", "type_in_all_cases": "biochemical", "key": {"[1]": {"target": "T1, PRKD1 (PKC mu) (Homo sapiens, UniProt Q15139)", "T1 construct": "purchased Invitrogen", "T1 sequence (Q15139 1-912)": "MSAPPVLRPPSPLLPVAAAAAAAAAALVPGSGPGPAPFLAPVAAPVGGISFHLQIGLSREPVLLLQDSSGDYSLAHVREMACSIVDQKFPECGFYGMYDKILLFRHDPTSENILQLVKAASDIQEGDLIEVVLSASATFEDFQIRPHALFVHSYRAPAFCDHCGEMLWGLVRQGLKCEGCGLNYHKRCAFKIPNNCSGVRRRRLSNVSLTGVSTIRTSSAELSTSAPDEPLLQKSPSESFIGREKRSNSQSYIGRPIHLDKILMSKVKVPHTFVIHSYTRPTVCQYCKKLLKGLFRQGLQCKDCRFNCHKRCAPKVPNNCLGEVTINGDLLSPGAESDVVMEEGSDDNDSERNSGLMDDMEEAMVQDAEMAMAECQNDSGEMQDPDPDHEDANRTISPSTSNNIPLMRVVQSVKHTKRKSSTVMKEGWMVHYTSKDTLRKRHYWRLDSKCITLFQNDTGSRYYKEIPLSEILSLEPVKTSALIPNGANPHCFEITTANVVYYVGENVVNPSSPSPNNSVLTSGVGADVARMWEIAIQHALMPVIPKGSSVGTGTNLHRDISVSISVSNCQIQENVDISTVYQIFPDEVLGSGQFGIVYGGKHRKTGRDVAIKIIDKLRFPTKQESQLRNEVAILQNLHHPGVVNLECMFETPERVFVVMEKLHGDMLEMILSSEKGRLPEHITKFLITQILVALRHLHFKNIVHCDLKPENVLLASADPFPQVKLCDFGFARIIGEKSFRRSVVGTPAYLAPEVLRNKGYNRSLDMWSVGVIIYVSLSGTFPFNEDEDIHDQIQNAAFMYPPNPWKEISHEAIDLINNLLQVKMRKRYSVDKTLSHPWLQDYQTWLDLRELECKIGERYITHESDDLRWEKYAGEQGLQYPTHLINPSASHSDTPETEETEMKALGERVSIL", "test": "Kinase profiling, Invitrogen Z'-LYTE", "details": "Table 2", "description": "(§1) Kinase profiling was conducted using Invitrogen Z'-LYTE screening protocol and assay conditions found at www.invitrogen.com. Compound (2) inhibited PLK1 completely at 5 μM."}, "[2]": {"target": "T2, CSK (Homo sapiens, UniProt P41240)", "T2 construct": "purchased Invitrogen", "T2 sequence (P41240 whole entry)": "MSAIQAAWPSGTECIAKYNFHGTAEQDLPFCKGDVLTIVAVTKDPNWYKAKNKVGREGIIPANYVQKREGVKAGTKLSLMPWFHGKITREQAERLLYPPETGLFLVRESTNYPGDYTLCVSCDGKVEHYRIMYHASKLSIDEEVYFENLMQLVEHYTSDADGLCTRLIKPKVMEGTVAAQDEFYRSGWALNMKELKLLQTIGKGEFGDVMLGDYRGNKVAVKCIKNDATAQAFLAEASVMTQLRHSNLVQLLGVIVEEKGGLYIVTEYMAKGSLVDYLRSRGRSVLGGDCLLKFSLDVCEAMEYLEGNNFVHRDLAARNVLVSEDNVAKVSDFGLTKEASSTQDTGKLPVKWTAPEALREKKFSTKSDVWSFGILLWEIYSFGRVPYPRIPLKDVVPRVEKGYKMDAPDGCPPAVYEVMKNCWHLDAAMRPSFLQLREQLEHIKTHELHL", "test": "Kinase profiling, Invitrogen Z'-LYTE", "details": "Table 2", "description": "as §1"}, "[3]": {"target": "T3, GRK4 (Homo sapiens, UniProt P32298)", "T3 construct": "purchased Invitrogen", "T3 sequence (P32298 whole entry)": "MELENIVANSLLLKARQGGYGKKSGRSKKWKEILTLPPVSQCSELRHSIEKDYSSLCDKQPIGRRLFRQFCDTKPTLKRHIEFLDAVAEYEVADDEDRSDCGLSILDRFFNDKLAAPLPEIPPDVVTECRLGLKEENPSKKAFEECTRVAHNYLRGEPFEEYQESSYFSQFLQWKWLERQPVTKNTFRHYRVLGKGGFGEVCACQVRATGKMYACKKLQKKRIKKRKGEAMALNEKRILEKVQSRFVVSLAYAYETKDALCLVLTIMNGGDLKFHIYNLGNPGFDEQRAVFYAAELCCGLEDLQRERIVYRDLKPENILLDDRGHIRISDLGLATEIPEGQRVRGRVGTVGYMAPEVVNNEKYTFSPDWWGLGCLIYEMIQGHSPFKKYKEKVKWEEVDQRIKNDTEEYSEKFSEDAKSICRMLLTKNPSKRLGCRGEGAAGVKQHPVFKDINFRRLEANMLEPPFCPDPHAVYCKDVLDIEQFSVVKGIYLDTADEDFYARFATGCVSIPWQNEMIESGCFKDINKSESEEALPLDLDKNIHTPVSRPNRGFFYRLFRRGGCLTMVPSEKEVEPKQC", "test": "Kinase profiling, Invitrogen Z'-LYTE", "details": "Table 2", "description": "as §1"}, "[4]": {"target": "T4, NEK6 (Homo sapiens, UniProt Q9HC98)", "T4 construct": "purchased Invitrogen", "T4 sequence (Q9HC98 whole entry)": "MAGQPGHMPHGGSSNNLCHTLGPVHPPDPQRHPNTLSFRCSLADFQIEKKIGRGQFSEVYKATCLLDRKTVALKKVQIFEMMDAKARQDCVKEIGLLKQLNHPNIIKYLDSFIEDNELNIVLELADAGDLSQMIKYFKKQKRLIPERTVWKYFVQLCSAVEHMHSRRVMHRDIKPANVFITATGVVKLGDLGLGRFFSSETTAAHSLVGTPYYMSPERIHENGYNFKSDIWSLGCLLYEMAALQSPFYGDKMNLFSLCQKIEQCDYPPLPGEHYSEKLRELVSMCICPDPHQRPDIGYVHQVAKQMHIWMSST", "test": "Kinase profiling, Invitrogen Z'-LYTE", "details": "Table 2", "description": "as §1"}, "[5]": {"target": "T5, SRPK2 (Homo sapiens, UniProt P78362)", "T5 construct": "purchased Invitrogen", "T5 sequence (P78362 whole entry)": "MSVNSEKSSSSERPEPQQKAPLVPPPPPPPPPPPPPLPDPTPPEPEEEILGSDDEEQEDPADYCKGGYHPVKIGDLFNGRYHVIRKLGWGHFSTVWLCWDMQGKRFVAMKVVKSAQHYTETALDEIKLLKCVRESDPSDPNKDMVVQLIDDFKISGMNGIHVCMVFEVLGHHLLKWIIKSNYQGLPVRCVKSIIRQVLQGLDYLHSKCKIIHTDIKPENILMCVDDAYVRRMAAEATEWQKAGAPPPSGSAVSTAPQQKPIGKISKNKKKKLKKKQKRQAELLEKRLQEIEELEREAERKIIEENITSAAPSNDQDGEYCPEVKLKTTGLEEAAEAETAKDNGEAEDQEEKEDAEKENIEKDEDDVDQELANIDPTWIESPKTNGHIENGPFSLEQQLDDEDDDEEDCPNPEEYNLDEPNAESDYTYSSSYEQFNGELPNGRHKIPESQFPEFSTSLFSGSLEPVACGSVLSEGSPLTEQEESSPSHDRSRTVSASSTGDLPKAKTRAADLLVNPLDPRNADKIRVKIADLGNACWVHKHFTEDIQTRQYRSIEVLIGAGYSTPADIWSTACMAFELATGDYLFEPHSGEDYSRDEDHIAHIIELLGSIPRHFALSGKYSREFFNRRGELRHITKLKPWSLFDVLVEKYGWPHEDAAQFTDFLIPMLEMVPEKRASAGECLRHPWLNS", "test": "Kinase profiling, Invitrogen Z'-LYTE", "details": "Table 2", "description": "as §1"}, "[6]": {"target": "T6, OGT (Homo sapiens, UniProt O15294)", "T6 construct": "hOGT4.5 construct (spanning residues 313-1031 based on the numbering of the full length human protein); made in house", "T6 sequence (O15294 313-1031 isoform O15294-3)": "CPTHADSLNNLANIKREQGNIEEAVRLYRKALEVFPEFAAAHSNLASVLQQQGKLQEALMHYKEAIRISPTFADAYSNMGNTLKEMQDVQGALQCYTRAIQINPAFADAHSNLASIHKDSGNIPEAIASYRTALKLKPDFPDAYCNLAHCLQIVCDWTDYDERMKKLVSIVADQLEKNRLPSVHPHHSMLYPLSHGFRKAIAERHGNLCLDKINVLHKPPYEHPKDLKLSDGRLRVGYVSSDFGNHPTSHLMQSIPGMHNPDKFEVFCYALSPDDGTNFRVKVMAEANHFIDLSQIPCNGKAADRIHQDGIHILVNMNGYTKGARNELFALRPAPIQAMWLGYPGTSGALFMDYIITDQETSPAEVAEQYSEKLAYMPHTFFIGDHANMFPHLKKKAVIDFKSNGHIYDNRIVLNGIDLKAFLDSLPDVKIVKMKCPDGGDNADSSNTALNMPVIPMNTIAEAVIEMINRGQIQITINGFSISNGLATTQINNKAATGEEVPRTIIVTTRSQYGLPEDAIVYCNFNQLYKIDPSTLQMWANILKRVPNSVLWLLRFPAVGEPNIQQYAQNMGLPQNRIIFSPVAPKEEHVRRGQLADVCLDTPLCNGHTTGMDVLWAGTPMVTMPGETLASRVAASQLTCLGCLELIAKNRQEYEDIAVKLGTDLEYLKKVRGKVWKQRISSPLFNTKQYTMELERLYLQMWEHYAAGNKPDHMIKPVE", "test": "Time-dependent inactivation of OGT with BZX compounds", "source_text": "Compound (1) was identified in a high-throughput screen of 65,000 compounds (FIG. 1). See, e.g., Gross et al., J. Am. Chem. Soc. (2005) 127:14588-14589. It contains a dicarbamate moiety that links two aromatic groups. This compound features a conjugated chemical structure and both carbamate carbonyls are potentially reactive. See, e.g., Alexander et al., Chem. Biol. (2005) 12:1179-1187. […] A small panel of related compounds was made from commercially available building blocks in order to identify structural features that might improve potency. Time-dependent inactivation studies were carried out in which OGT was preincubated with a three-fold excess of each compound for 5 min, and the mixture was then diluted 100-fold into buffer containing UDP-^14C-GlcNAc and the well-characterized peptide substrate, CKII. See, e.g., Kreppel et al., J. Biol. Chem. (1999) 274:32015-32022). Enzyme activity was measured using a previously developed peptide capture assay. See, e.g., Gross et al., J. Am. Chem. Soc. (2005) 127:14588-14589.\nEach BZX compound (7.5 μM) was preincubated with 5 μM OGT in reaction buffer (125 mM NaCl, 1 mM EDTA, 20 mM potassium phosphate, pH 7.4, and 500 μM tris(hydroxypropyl)phosphine (THP)) at room temperature for different amount of time, then diluted 100-fold, mixed with substrates (6 μM UDP-^14C-GlcNAc and 500 μM CKII peptide (KKKYPGGSTPVSSANMM)) and allowed to react for another 2 h. Enzyme activity was tested with the peptide capture assay as previously reported. See, e.g., Gross et al., J. Am. Chem. Soc. (2005) 127:14588-14589. The final volume of each reaction was 20 μl, and the experiments were conducted in triplicate. The activities of OGT mutants were also tested in triplicate as previously reported. See, e.g., Gross supra."}}}
{"smiles": "COc1ccc(OC(=O)n2c(=O)oc3cc(C(C)=O)ccc32)cc1", "note": "[Compound 2]", "values": [{"measurement": "% Inhibition Point 1", "setting": "[1]", "value": "−137", "unit": "%"}, {"measurement": "% Inhibition Point 2", "setting": "[1]", "value": "−151", "unit": "%"}, {"measurement": "% Inhibition mean", "setting": "[1]", "value": "−144", "unit": "%"}, {"measurement": "% Inhibition Point 1", "setting": "[2]", "value": "−42", "unit": "%"}, {"measurement": "% Inhibition Point 2", "setting": "[2]", "value": "−60", "unit": "%"}, {"measurement": "% Inhibition mean", "setting": "[2]", "value": "−51", "unit": "%"}, {"measurement": "% Inhibition Point 1", "setting": "[3]", "value": 77, "unit": "%"}, {"measurement": "% Inhibition Point 2", "setting": "[3]", "value": 76, "unit": "%"}, {"measurement": "% Inhibition mean", "setting": "[3]", "value": 76, "unit": "%"}, {"measurement": "% Inhibition Point 1", "setting": "[4]", "value": "−490", "unit": "%"}, {"measurement": "% Inhibition Point 2", "setting": "[4]", "value": "−457", "unit": "%"}, {"measurement": "% Inhibition mean", "setting": "[4]", "value": "−474", "unit": "%"}, {"measurement": "% Inhibition Point 1", "setting": "[5]", "value": "−155", "unit": "%"}, {"measurement": "% Inhibition Point 2", "setting": "[5]", "value": "−160", "unit": "%"}, {"measurement": "% Inhibition mean", "setting": "[5]", "value": "−158", "unit": "%"}, {"measurement": "inactivation time course of OGT", "setting": "[6]; 1.5:1 inhibitor:enzyme ratio", "value": "fully inactivated OGT"}, {"measurement": "OGT inactivation in the presence of UDP-GlcNAc in the preincubation mixture", "setting": "[6]; OGT 5 μM, compound 20 μM, UDP-GlcNAc 40 μM, 2-20 min", "value": "UDP-GlcNAc reduced the rate of inactivation"}, {"measurement": "time to full inactivation of OGT", "setting": "[6]; near 1:1 ratio", "value": "≤ 5", "unit": "min"}]}
